Where a SMILES comes first, the peptide text is derived from it.

The target in assay [1] is Wnt-responsive promoter (TCF/LEF). Kind of assay: Wnt-dependent luciferase reporter assay. In kind it is cell-based, murine. As for the experimental part: The luciferase reporter assay is commonly used as a tool to study gene expression at the transcriptional level. Peptides from libraries described herein were characterized for ability to suppress transcription in cells with luciferase expression controlled by a Wnt-responsive promoter. Peptides were added to cells transfected with luciferase gene downstream of a Wnt-responsive promoter. Cells were stimulated with Wnt3a protein and incubated with peptides from libraries described herein. Luminescence was recorded to determine the peptides with the highest β-catenin-inhibiting activity. EC50 values were calculated based on the inhibition of luminescence and expressed as concentration (uM) in Table 5.
Peptides were assessed for their ability to inhibit Wnt signaling. Murine 3T3 fibroblasts that express luciferase under a Wnt-responsive promoter (TCF/LEF) (Enzo Life Sciences, Farmingdale, NY) were stimulated with Wnt3a in the presence of increasing concentrations of peptide inhibitor (Hit 1: SEQ ID NO:217, Hit 2: SEQ ID NO:224, Hit 3: SEQ ID NO:228, Hit 4: SEQ ID NO:227, Hit 5: SEQ ID NO:220, Hit 6: SEQ ID NO:168. Hit 7: SEQ ID NO:226) or with vehicle control (FIG. 2A).
On the technique in general: A reporter such as luciferase makes a cellular process visible.

A further assay deals with T1, β-catenin (Homo sapiens, UniProt P35222).
T1 sequence (P35222 1-781): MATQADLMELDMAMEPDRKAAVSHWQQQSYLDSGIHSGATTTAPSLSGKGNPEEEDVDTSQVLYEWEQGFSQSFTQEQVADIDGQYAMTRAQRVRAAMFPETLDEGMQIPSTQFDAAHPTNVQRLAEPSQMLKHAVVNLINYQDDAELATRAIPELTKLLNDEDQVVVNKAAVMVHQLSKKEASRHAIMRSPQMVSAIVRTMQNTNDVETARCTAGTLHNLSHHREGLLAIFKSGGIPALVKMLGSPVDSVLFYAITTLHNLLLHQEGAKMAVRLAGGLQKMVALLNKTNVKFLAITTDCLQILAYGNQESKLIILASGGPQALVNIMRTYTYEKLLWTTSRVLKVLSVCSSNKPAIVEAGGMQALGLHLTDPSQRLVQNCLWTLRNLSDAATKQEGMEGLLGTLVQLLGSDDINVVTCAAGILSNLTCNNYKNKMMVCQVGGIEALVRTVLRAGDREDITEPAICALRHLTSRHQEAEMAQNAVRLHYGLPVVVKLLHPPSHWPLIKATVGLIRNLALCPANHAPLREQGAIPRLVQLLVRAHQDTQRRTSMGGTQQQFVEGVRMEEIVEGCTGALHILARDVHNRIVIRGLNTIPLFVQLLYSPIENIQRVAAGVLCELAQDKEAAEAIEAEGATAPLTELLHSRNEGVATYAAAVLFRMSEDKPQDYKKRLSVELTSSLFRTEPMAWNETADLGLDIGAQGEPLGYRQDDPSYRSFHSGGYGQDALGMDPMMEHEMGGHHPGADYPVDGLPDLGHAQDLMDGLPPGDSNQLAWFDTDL
Briefly: KD50 measurement using competitive fluorescence polarization (FP) with labelled TCF4. In kind it is binding. The settings on record: fluorescence polarization, β-catenin; for Kd: read-out: β-Cat FP KD. Put shortly:
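Each compound competes against labelled TCF4 (5 nM) for 100 nM β-catenin at room temperature, tested over 10 nM to 30 uM. Signal: polarization at 470/520 nm excitation/emission. Three repeat experiments were performed.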
For orientation: Fluorescence polarisation rises when a labelled molecule tumbles more slowly, as on binding a larger partner.

For orientation: EC50 means the midpoint of the concentration-response curve. A low value points to a more potent agent. As a reminder, the Kd is the concentration at which binding is half-saturated. On to `CC[C@H](C)[C@H]1NC(=O)[C@@H](CO)NC(=O)[C@@H](CCC(=O)O)NC(=O)[C@H](Cc2c[nH]c3ccccc23)NC(=O)CCCCn2cc(nn2)CC(C(N)=O)NC(=O)[C@H](Cc2c[nH]c3ccccc23)NC(=O)[C@H](C(C)C)NC(=O)[C@H](CCCNC(=N)N)NC(=O)[C@@H](CCC(N)=O)NC(=O)[C@@H](C(C)C)NC(=O)[C@@H](Cc2cnc[nH]2)NC(=O)[C@H](CCC(=O)O)NC(=O)[C@H](CC(=O)O)NC(=O)[C@H](CC(C)C)NC1=O` (some centres unmarked) [compound 33], for which the EC50 in assay [1] was above 30 µM. In addition, the equilibrium dissociation constant (Kd) at β-catenin is above 30 µM.

`CC[C@H](C)[C@H](NC(=O)[C@H](CO)NC(=O)[C@H](CCC(=O)O)NC(=O)[C@H](Cc1c[nH]c2ccccc12)NC(=O)[C@@H](N)CCSC)C(=O)N[C@@H](CC(C)C)C(=O)N[C@@H](CC(=O)O)C(=O)N[C@@H](CCC(=O)O)C(=O)N[C@@H](Cc1c[nH]cn1)C(=O)NC(C)(C(=O)N[C@@H](CCC(N)=O)C(=O)N[C@@H](CCCNC(=N)N)C(=O)N[C@H](C(=O)N[C@@H](Cc1c[nH]c2ccccc12)C(=O)NCC(N)=O)C(C)C)C(C)C` (some centres unmarked) [compound 34] (HELM PEPTIDE1{M.W.E.S.I.L.D.E.H.[CC(C)C(C)(N[*:1])C(=O)[*:2]].Q.R.V.W.G.[am]}$$$$V2.0) had a concentration for a half-maximal effect (EC50) in assay [1] above 30 µM. In addition, at β-catenin, the “β-Cat FP Hill slope” value worked out at 0.92 and the Kd was below 0.4 µM.

Turning to `CC[C@H](C)[C@@H]1NC(=O)[C@@H](NC(=O)[C@H](CCC(N)=O)NC(C)=O)CCCCNC(=O)CC[C@@H](C(=O)N[C@@H](Cc2c[nH]cn2)C(=O)N[C@H](C(=O)N[C@@H](CCC(N)=O)C(=O)N[C@@H](CCCNC(=N)N)C(=O)N[C@H](C(=O)N[C@@H](Cc2c[nH]c3ccccc23)C(=O)NCC(N)=O)C(C)C)C2CCCCC2)NC(=O)[C@H](CC(=O)O)NC(=O)[C@H](CC(C)C)NC1=O` [compound 440] (HELM PEPTIDE1{[ac].Q.K.I.L.D.E.H.[O=C([C@@H](N[*:1])C1CCCCC1)[*:2]].Q.R.V.W.G.[am]}$PEPTIDE1,PEPTIDE1,3:R3-7:R3$$$V2.0), the EC50 in assay [1] is 22.5 to 30 µM. Also, at β-catenin, the “β-Cat FP Hill slope” value worked out at 0.7 and the Kd is below 0.4 µM.

In turn, `CC[C@H](C)[C@@H]1NC(=O)[C@@H](NC(=O)[C@H](CCC(N)=O)NC(=O)[C@H](C)N(C)C(C)=O)CCCCNC(=O)CC[C@@H](C(=O)N[C@@H](Cc2c[nH]cn2)C(=O)N[C@H](C(=O)N[C@@H](CCC(N)=O)C(=O)N[C@@H](CCCNC(=N)N)C(=O)N[C@H](C(=O)N[C@@H](Cc2c[nH]c3ccccc23)C(=O)N[C@@H](CCCNC(=N)N)C(N)=O)C(C)C)C2CCCCC2)NC(=O)[C@H](CC(=O)O)NC(=O)[C@H](CC(C)C)NC1=O` [compound 448] (HELM PEPTIDE1{[ac].[meA].Q.K.I.L.D.E.H.[O=C([C@@H](N[*:1])C1CCCCC1)[*:2]].Q.R.V.W.R.[am]}$PEPTIDE1,PEPTIDE1,4:R3-8:R3$$$V2.0) returned a concentration giving a half-maximal response (EC50) in assay [1] above 30 µM. In addition, at β-catenin, the “β-Cat FP Hill slope” value is listed as 0.7 and the equilibrium dissociation constant (Kd) was below 0.4 µM.

`CC[C@H](C)[C@@H]1NC(=O)[C@@H](NC(=O)[C@H](CCC(N)=O)NC(=O)[C@H](C)N(C)C(=O)[C@H](Cc2c[nH]c3ccccc23)NC(C)=O)CCCCNC(=O)C[C@@H](C(=O)N[C@@H](Cc2c[nH]cn2)C(=O)N[C@H](C(=O)N[C@@H](CCC(N)=O)C(=O)N[C@@H](CCCNC(=N)N)C(=O)N[C@H](C(=O)N[C@@H](Cc2c[nH]c3ccccc23)C(=O)NCC(N)=O)C(C)C)C2CCCCC2)NC(=O)[C@H](CC(=O)O)NC(=O)[C@H](CC(C)C)NC1=O` [compound 430] (HELM PEPTIDE1{[ac].W.[meA].Q.K.I.L.D.D.H.[O=C([C@@H](N[*:1])C1CCCCC1)[*:2]].Q.R.V.W.G.[am]}$PEPTIDE1,PEPTIDE1,5:R3-9:R3$$$V2.0) registered an EC50 in assay [1] of 15 to 22.5 µM. Moreover, on β-catenin, the “β-Cat FP Hill slope” value is given as 1.75 and the Kd is below 0.4 µM.

On to `CC[C@H](C)[C@@H]1NC(=O)[C@@H](NC(=O)[C@H](CCC(N)=O)NC(=O)[C@H](C)N(C)C(=O)[C@H](Cc2c[nH]c3ccccc23)NC(C)=O)CCCCNC(=O)CC[C@@H](C(=O)N[C@@H](Cc2c[nH]cn2)C(=O)N[C@H](C(=O)N[C@@H](CCC(N)=O)C(=O)N[C@@H](CCCNC(=N)N)C(=O)N[C@H](C(=O)N[C@@H](Cc2c[nH]c3ccccc23)C(=O)NCC(N)=O)C(C)C)C2CCCCC2)NC(=O)[C@H](CC(N)=O)NC(=O)[C@H](CC(C)C)NC1=O` [compound 435] (HELM PEPTIDE1{[ac].W.[meA].Q.K.I.L.N.E.H.[O=C([C@@H](N[*:1])C1CCCCC1)[*:2]].Q.R.V.W.G.[am]}$PEPTIDE1,PEPTIDE1,5:R3-9:R3$$$V2.0), for which, in assay [1], the EC50 was above 30 µM. Besides, at β-catenin, the “β-Cat FP Hill slope” value stood at 0.7 and the Kd was below 0.4 µM.

With `CC[C@H](C)[C@H](NC(=O)[C@H](CO)NC(=O)[C@H](CCC(=O)O)NC(=O)[C@H](Cc1c[nH]c2ccccc12)N(C)C(=O)[C@@H](N)Cc1c[nH]c2ccccc12)C(=O)N[C@@H](CC(C)C)C(=O)N[C@@H](CC(=O)O)C(=O)N[C@@H](CCC(=O)O)C(=O)N[C@@H](Cc1c[nH]cn1)C(=O)NC(C)(C(=O)N[C@@H](CCC(N)=O)C(=O)N[C@@H](CCCNC(=N)N)C(=O)N[C@H](C(=O)N[C@@H](Cc1c[nH]c2ccccc12)C(=O)NCC(N)=O)C(C)C)C(C)C` (some centres unmarked) [compound 39] (HELM PEPTIDE1{W.[meW].E.S.I.L.D.E.H.[CC(C)C(C)(N[*:1])C(=O)[*:2]].Q.R.V.W.G.[am]}$$$$V2.0), in assay [1], the half-maximal effective concentration (EC50) was above 30 µM. Further, at β-catenin, the “β-Cat FP Hill slope” value came to 0.89 and the Kd is below 0.4 µM.

For `CC[C@H](C)[C@@H]1NC(=O)[C@@H](NC(=O)[C@H](CCC(N)=O)NC(=O)[C@H](C)NC(=O)[C@H](Cc2c[nH]c3ccccc23)NC(C)=O)CCCCNC(=O)CC[C@@H](C(=O)N[C@@H](Cc2c[nH]cn2)C(=O)N[C@H](C(=O)N[C@@H](CCC(N)=O)C(=O)N[C@@H](CCCNC(=N)N)C(=O)N[C@H](C(=O)N[C@@H](Cc2c[nH]c3ccccc23)C(=O)NCC(N)=O)C(C)C)C2CCCCC2)NC(=O)[C@H](CC(=O)O)NC(=O)[C@H](CC(C)C)NC1=O` [compound 441] (HELM PEPTIDE1{[ac].W.A.Q.K.I.L.D.E.H.[O=C([C@@H](N[*:1])C1CCCCC1)[*:2]].Q.R.V.W.G.[am]}$PEPTIDE1,PEPTIDE1,5:R3-9:R3$$$V2.0), the 50% effective concentration (EC50) in assay [1] is above 30 µM. Moreover, on β-catenin, the “β-Cat FP Hill slope” value worked out at 1.86 and the dissociation constant Kd was below 0.4 µM.

As to `CC[C@H](C)[C@H](NC(=O)C(C)(CO)NC(=O)[C@H](CCC(=O)O)NC(=O)[C@H](Cc1c[nH]c2ccccc12)N(C)C(=O)[C@@H](N)Cc1c[nH]c2ccccc12)C(=O)N[C@@H](CC(C)C)C(=O)N[C@@H](CC(=O)O)C(=O)N[C@@H](CCC(=O)O)C(=O)N[C@@H](Cc1c[nH]cn1)C(=O)NC(C)(C(=O)N[C@@H](CCC(N)=O)C(=O)N[C@@H](CCCNC(=N)N)C(=O)N[C@H](C(=O)N[C@@H](Cc1c[nH]c2ccccc12)C(=O)NCC(N)=O)C(C)C)C(C)C` (some centres unmarked) [compound 38] (HELM PEPTIDE1{W.[meW].E.[CC(CO)(N[*:1])C(=O)[*:2]].I.L.D.E.H.[CC(C)C(C)(N[*:1])C(=O)[*:2]].Q.R.V.W.G.[am]}$$$$V2.0), in assay [1], the concentration giving a half-maximal response (EC50) was above 30 µM. At β-catenin, the “β-Cat FP Hill slope” value stood at 0.9 and the dissociation constant Kd is below 0.4 µM.

The molecule `CC[C@H](C)[C@@H]1NC(=O)[C@@H](NC(=O)[C@H](CCC(N)=O)NC(=O)[C@H](C)N(C)C(=O)[C@H](Cc2c[nH]c3ccccc23)NC(C)=O)CCCCNC(=O)CC[C@@H](C(=O)N[C@@H](Cc2c[nH]cn2)C(=O)N[C@H](C(=O)N[C@@H](CCC(N)=O)C(=O)N[C@@H](CCCNC(=N)N)C(=O)N[C@H](C(=O)N[C@@H](Cc2c[nH]c3ccccc23)C(=O)N[C@@H](CCCNC(=N)N)C(N)=O)C(C)C)C2CCCCC2)NC(=O)[C@H](CC(=O)O)NC(=O)[C@H](CC(C)C)NC1=O` [compound 449] (HELM PEPTIDE1{[ac].W.[meA].Q.K.I.L.D.E.H.[O=C([C@@H](N[*:1])C1CCCCC1)[*:2]].Q.R.V.W.R.[am]}$PEPTIDE1,PEPTIDE1,5:R3-9:R3$$$V2.0) showed an EC50 in assay [1] above 30 µM. At β-catenin, the “β-Cat FP Hill slope” value is 0.89 and the dissociation constant Kd is below 0.4 µM.

(Values after patent US12441768B2, “Compositions and methods for treating endometriosis” (EndoMet Biosciences, Inc., priority 2018, dated 2025).)
